Here are results for 3 compounds from US11124818B2 (priority 2017, dated 2021).

One may read the IC50 as the concentration at which inhibition is half-maximal.

The subject of data set [1] is human tumor cell lines. Particulars: cited from earlier work.
In data set [2] the test system is OATP1B3-expressing HeLa and RKO cells. Particulars: cited from earlier work.
Data set [3] concerns type 1 protein phosphatases. Particulars: cited from earlier work.
Data set [4] concerns OATP1B1-expressing HeLa and RKO cells. Particulars: cited from earlier work.
The test system is the same in data set [5]. It is filed as cell-based.

Starred links: 1 amine or outer side, 2 acyl side, 3 side chain; linkers in the order of their positions; H or OH if unused. Positions of bridges follow the written chain, without caps; N, C: chain ends. Non-standard residues stand in square brackets, D forms with d. Residues, ends and D or L forms follow the SMILES beside them. *: point of attachment. Adda = CO[C@@H](Cc1ccccc1)[C@@H](C)/C=C(C)/C=C/[C@H](N[*:1])[C@H](C)C(=O)[*:2]; dAsp(3S-Me) = C[C@H](C(=O)[*:3])[C@@H](N[*:1])C(=O)[*:2]; Dolaproine = CO[C@@H]([C@@H]1CCCN1)[C@@H](C)C(=O)O; Dil = CC[C@H](C)[C@H](NC)[C@@H](CC(=O)O)OC; d(γGlu) = O=C(O)[C@@H](CCC(=O)[*:2])N[*:1]; X2 = C[C@@H](N*)[C@@H](O)c1ccccc1; NMeV = CN[C@H](C(=O)O)C(C)C; NMeDha = C=C(NC)C(=O)O Bounds are passed on as bounds.

On to `CC[C@H](C)[C@@H]([C@@H](CC(=O)N1CCC[C@H]1[C@H](OC)[C@@H](C)C(=O)N[C@H](C)[C@@H](O)c1ccccc1)OC)N(C)C(=O)[C@@H](NC(=O)[C@@H](NC)C(C)C)C(C)C` [Monomethyl auristatin E] (H-[NMeV]V[Dil][Dolaproine]-X2), for which, in data set [1], the cytotoxic potency is 3.9 to 10.3 nM.

Consider `C=C1C(=O)N[C@H](C)C(=O)N[C@@H](CC(C)C)C(=O)N[C@@H](C(=O)O)[C@H](C)C(=O)N[C@@H](CCCNC(=N)N)C(=O)N[C@@H](/C=C/C(C)=C/[C@H](C)[C@H](Cc2ccccc2)OC)[C@H](C)C(=O)N[C@@H](C(=O)O)CCC(=O)N1C` [LR, microcystin-LR] (R[Adda][d(γGlu)][NMeDha][dA]L[dAsp(3S-Me)]-OH; lactam N-7), for which the IC50 in data set [2] was 5.1 nM; in data set [3], 0.03 nM; in data set [4], 1 nM. Further, the “Ratio 1B1 to 1B3” value in data set [5] turned out to be 0.2.

Turning to `C/C=C1/C(=O)N[C@@H](C(=O)O)[C@H](C)C(=O)N[C@@H](CCCNC(=N)N)C(=O)N[C@@H](/C=C/C(C)=C/[C@H](C)[C@H](Cc2ccccc2)OC)[C@H](C)C(=O)N[C@@H](C(=O)O)CCC(=O)N1C` [NOD, Nodularin], the IC50 in data set [2] is above 100 nM; in data set [4] it was 8.4 nM. In addition, in data set [5], the “Ratio 1B1 to 1B3” value is given as below 0.1.
